Results published in US9745310B2 (SK BIOPHARMACEUTICALS CO., LTD., priority 2015, dated 2017).

Target: human mGluR5 receptor (Homo sapiens (Human), UniProt P41594)
Assay: Calcium influx assay based on fluorescence (mGluR5 PAM activity)
Conditions: human mGluR5 receptor-overexpressed HEK293 cell line; L-glutamate EC20; Fluo-4, FLIPR
In short: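 HEK293 cells overexpressing human mGluR5, loaded 1 h with Fluo-4 at 37° C. Compounds (10 μM to 10 nM final, 0.1–0.2% DMSO) added with an EC20 concentration of L-glutamate, and Ca2+ response read by FLIPR at room temperature. Activity scaled as 0% for EC20 glutamate alone and 100% for glutamate maximum.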

Chain of human mGluR5 receptor (P41594 21-1212): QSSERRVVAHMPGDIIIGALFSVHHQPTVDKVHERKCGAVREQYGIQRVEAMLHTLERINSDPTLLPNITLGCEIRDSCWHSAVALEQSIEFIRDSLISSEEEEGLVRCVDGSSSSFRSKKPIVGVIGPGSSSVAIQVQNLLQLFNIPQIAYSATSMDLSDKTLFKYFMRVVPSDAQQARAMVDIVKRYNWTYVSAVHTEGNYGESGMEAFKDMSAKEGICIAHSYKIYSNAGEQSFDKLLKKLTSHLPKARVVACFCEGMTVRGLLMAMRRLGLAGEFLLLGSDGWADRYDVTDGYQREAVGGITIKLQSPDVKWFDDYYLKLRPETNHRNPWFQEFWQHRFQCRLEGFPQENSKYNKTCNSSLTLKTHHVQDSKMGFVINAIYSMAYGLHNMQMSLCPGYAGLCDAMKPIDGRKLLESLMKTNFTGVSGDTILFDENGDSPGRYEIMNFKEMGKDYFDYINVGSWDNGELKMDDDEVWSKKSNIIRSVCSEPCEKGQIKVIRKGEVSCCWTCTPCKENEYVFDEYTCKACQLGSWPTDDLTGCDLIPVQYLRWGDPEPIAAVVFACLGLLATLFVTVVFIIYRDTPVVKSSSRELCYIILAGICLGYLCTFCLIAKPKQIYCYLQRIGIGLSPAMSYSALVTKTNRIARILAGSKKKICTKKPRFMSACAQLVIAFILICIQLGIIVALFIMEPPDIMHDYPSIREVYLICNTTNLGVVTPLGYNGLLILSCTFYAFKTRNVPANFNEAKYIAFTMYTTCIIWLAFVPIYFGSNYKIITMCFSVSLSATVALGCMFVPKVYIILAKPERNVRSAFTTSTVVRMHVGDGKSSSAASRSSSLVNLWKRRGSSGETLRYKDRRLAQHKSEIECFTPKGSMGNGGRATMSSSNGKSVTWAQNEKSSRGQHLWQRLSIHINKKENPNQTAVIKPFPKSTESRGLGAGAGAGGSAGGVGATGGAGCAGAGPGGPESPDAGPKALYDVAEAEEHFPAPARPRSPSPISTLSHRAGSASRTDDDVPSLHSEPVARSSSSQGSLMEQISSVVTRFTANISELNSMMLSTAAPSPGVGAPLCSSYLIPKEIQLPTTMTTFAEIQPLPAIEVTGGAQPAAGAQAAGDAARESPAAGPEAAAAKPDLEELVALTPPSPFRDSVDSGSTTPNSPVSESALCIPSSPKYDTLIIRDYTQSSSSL

SMILES | EC50
N#Cc1ccc(-c2cnc3nc(COc4ccccn4)cn3c2)cc1 [Example 140, 4-[2-(2-pyridyloxymethyl)imidazo[1,2-a]pyrimidin-6-yl]benzonitrile] | 100 to 500 nM
COCc1cc(F)ccc1-c1cnc2nc(COc3ccccn3)cn2c1 [Example 141, 6-[4-fluoro-2-(methoxymethyl)phenyl]-2-(2-pyridyloxymethyl)imidazo[1,2-a]pyrimidine] | 100 to 500 nM
OCc1cc(C(F)(F)F)ccc1-c1cnc2nc(COc3ccccn3)cn2c1 [Example 142, [2-[2-(2-pyridyloxymethyl)imidazo[1,2-a]pyrimidin-6-yl]-5-(trifluoromethyl)phenyl]methanol] | 100 to 500 nM
CC(C)c1ccccc1-c1cnc2nc(COc3ccccn3)cn2c1 [Example 143, 6-(2-isopropylphenyl)-2-(2-pyridyloxymethyl)imidazo[1,2-a]pyrimidine] | 500 to 1000 nM
O=Cc1ccc(-c2cnc3nc(COc4ccccn4)cn3c2)c(C(F)(F)F)c1 [Example 144, 4-[2-(2-pyridyloxymethyl)imidazo[1,2-a]pyrimidin-6-yl]-3-(trifluoromethyl)benzaldehyde] | 500 to 1000 nM
FC(F)(F)c1cc(Cl)ccc1-c1cnc2nc(COc3ccccn3)cn2c1 [Example 145, 6-[4-chloro-2-(trifluoromethyl)phenyl]-2-(2-pyridyloxymethyl)imidazo[1,2-a]pyrimidine] | 100 to 500 nM
Fc1ccc(-c2cnc3nc(COc4cccnc4)cn3c2)cc1 [Example 146, 6-(4-fluorophenyl)-2-(pyridin-3-yloxymethyl)imidazo[1,2-a]pyrimidine] | 500 to 1000 nM
COc1cc(F)ccc1-c1cnc2nc(COc3cccnc3)cn2c1 [Example 147, 6-(4-fluoro-2-methoxyphenyl)-2-(pyridin-3-yloxymethyl)imidazo[1,2-a]pyrimidine] | 500 to 1000 nM
Fc1ccc(-c2cnc3nc(COc4cccnc4)cn3c2)c(F)c1 [Example 148, 6-(2,4-difluorophenyl)-2-(pyridin-3-yloxymethyl)imidazo[1,2-a]pyrimidine] | 500 to 1000 nM
Cc1cc(F)ccc1-c1cnc2nc(COc3cccnc3)cn2c1 [Example 149, 6-(4-fluoro-2-methylphenyl)-2-(pyridin-3-yloxymethyl)imidazo[1,2-a]pyrimidine] | 100 to 500 nM
Oc1cc(F)ccc1-c1cnc2nc(COc3cccnc3)cn2c1 [Example 150, 6-(4-fluoro-2-hydroxyphenyl)-2-(pyridin-3-yloxymethyl)imidazo[1,2-a]pyrimidine] | 500 to 1000 nM
COc1cc(F)ccc1-c1cnc2nc(COc3ccncc3)cn2c1 [Example 151, 6-(4-fluoro-2-methoxyphenyl)-2-(pyridin-4-yloxymethyl)imidazo[1,2-a]pyrimidine] | 100 to 500 nM
Fc1ccc(-c2cnc3nc(COc4ccncc4)cn3c2)c(F)c1 [Example 152, 6-(2,4-difluorophenyl)-2-(pyridin-4-yloxymethyl)imidazo[1,2-a]pyrimidine] | 100 to 500 nM
Cc1ccccc1-c1cnc2nc(COc3cncc(F)c3)cn2c1 [Example 153, 6-(2-methylphenyl)-2-(5-fluoro-pyridin-3-yloxymethyl)imidazo[1,2-a]pyrimidine] | 100 to 500 nM
Cc1cc(F)ccc1-c1cnc2nc(COc3cncc(F)c3)cn2c1 [Example 154, 6-(4-fluoro-2-methylphenyl)-2-(5-fluoro-pyridin-3-yloxymethyl)imidazo[1,2-a]pyrimidine] | 100 to 500 nM
COc1cc(F)ccc1-c1cnc2nc(COc3cncc(F)c3)cn2c1 [Example 155, 6-(4-fluoro-2-methoxyphenyl)-2-(5-fluoropyridin-3-yloxymethyl)imidazo[1,2-a]pyrimidine] | 100 to 500 nM
Oc1cc(F)ccc1-c1cnc2nc(COc3cncc(F)c3)cn2c1 [Example 156, 6-(4-fluoro-2-hydroxyphenyl)-2-(5-fluoropyridin-3-yloxymethyl)imidazo[1,2-a]pyrimidine] | 100 to 500 nM
Fc1ccc(-c2cnc3nc(COc4ccc(F)nc4)cn3c2)c(F)c1 [Example 157, 6-(2,4-difluorophenyl)-2-(6-fluoropyridin-3-yloxymethyl)imidazo[1,2-a]pyrimidine] | 500 to 1000 nM
Cc1cc(F)ccc1-c1cnc2nc(COc3ccc(F)nc3)cn2c1 [Example 158, 6-(4-fluoro-2-methylphenyl)-2-(6-fluoropyridin-3-yloxymethyl)imidazo[1,2-a]pyrimidine] | 100 to 500 nM
Cc1cc(F)ccc1-c1cnc2nc(COc3cccnc3F)cn2c1 [Example 159, 6-(4-fluoro-2-methylphenyl)-2-(2-fluoropyridin-3-yloxymethyl)imidazo[1,2-a]pyrimidine] | 500 to 1000 nM
Cc1cc(F)ccc1-c1cnc2nc(COc3cncc(Cl)c3)cn2c1 [Example 160, 6-(4-fluoro-2-methylphenyl)-2-(5-chloropyridin-3-yloxymethyl)imidazo[1,2-a]pyrimidine] | 500 to 1000 nM

SMILES | EC50
Fc1ccc(-c2cnc3nc(COc4ccnc(F)c4)cn3c2)c(F)c1 [Example 161, 6-(2,4-difluorophenyl)-2-(2-fluoropyridin-4-yloxymethyl)imidazo[1,2-a]pyrimidine] | 100 to 500 nM
COc1cc(F)ccc1-c1cnc2nc(COc3ccnc(F)c3)cn2c1 [Example 163, 6-(4-fluoro-2-methoxyphenyl)-2-(2-fluoropyridin-4-yloxymethyl)imidazo[1,2-a]pyrimidine] | 100 to 500 nM
Fc1ccc(-c2cnc3nc(COc4ccnc(F)c4)cn3c2)cc1 [Example 164, 6-(4-fluorophenyl)-2-(2-fluoropyridin-4-yloxymethyl)imidazo[1,2-a]pyrimidine] | 100 to 500 nM
Fc1cc(OCc2cn3cc(-c4cccc(F)c4F)cnc3n2)ccn1 [Example 165, 6-(2,3-difluorophenyl)-2-(2-fluoropyridin-4-yloxymethyl)imidazo[1,2-a]pyrimidine] | 100 to 500 nM
Fc1cc(OCc2cn3cc(-c4ccccc4F)cnc3n2)ccn1 [Example 166, 6-(2-fluorophenyl)-2-(2-fluoropyridin-4-yloxymethyl)imidazo[1,2-a]pyrimidine] | 100 to 500 nM
Oc1cc(F)ccc1-c1cnc2nc(COc3ccnc(F)c3)cn2c1 [Example 167, 6-(4-fluoro-2-hydroxyphenyl)-2-(2-fluoropyridin-4-yloxymethyl)imidazo[1,2-a]pyrimidine] | 100 to 500 nM
Oc1ccccc1-c1cnc2nc(COc3ccnc(F)c3)cn2c1 [Example 169, 6-(2-hydroxyphenyl)-2-(2-fluoropyridin-4-yloxymethyl)imidazo[1,2-a]pyrimidine] | 100 to 500 nM
OCc1cc(F)ccc1-c1cnc2nc(COc3ccnc(F)c3)cn2c1 [Example 170, 6-(4-fluoro-2-hydroxymethylphenyl)-2-(2-fluoropyridin-4-yloxymethyl)imidazo[1,2-a]pyrimidine] | 100 to 500 nM
Fc1ccc(-c2cnc3nc(COc4cncc(F)c4)cn3c2)cc1 [Example 171, 6-(4-fluorophenyl)-2-[(5-fluoro-3-pyridyl)oxymethyl)imidazo[1,2-a]pyrimidine] | 100 to 500 nM
Fc1ccc(-c2cnc3nc(COc4ccnc(Cl)c4)cn3c2)cc1 [Example 172, 2-[(2-chloro-4-pyridyl)oxymethyl]-6-(4-fluorophenyl)imidazo[1,2-a]pyrimidine] | 100 to 500 nM
Fc1cncc(OCc2cn3cc(-c4ccc(F)cc4C(F)(F)F)cnc3n2)c1 [Example 173, 2-[(5-fluoro-3-pyridyl)oxymethyl]-6-[4-fluoro-2-(trifluoromethyl)phenyl]imidazo[1,2-a]pyrimidine] | 500 to 1000 nM
Fc1ccc(-c2cnc3nc(COc4ccnc(F)c4)cn3c2)c(C(F)(F)F)c1 [Example 174, 2-[(2-fluoro-4-pyridyl)oxymethyl]-6-[4-fluoro-2-(trifluoromethyl)phenyl]imidazo[1,2-a]pyrimidine] | 100 to 500 nM
Nc1cc(F)ccc1-c1cnc2nc(COc3cncc(F)c3)cn2c1 [Example 175, 5-fluoro-2-[2-[(5-fluoro-3-pyridyl)oxymethyl]imidazo[1,2-a]pyrimidin-6-yl]aniline] | 500 to 1000 nM
Nc1cc(F)ccc1-c1cnc2nc(COc3ccnc(F)c3)cn2c1 [Example 176, 5-fluoro-2-[2-[(2-fluoro-4-pyridyl)oxymethyl]imidazo[1,2-a]pyrimidin-6-yl]aniline] | 100 to 500 nM
OCc1cc(F)ccc1-c1cnc2nc(COc3cncc(F)c3)cn2c1 [Example 177, [5-fluoro-2-[2-[(5-fluoro-3-pyridyl)oxymethyl]imidazo[1,2-a]pyrimidin-6-yl]phenyl]methanol] | 500 to 1000 nM
Fc1ccc(-c2cnc3nc(COc4ccccc4)cn3n2)c(F)c1 [Example 178, 2-(2,4-difluorophenyl)-6-(phenoxymethyl)imidazo[1,2-b][1,2,4]triazine] | 100 to 500 nM
Fc1ccc(-c2cnc3nc(COc4ccncc4)cn3n2)c(F)c1 [Example 179, 2-(2,4-difluorophenyl)-6-((pyridin-4-yloxy)methyl)imidazo[1,2-b][1,2,4]triazine] | 100 to 500 nM
Fc1ccc(-c2cnc3nc(COc4ccccn4)cn3n2)c(F)c1 [Example 180, 2-(2,4-difluorophenyl)-6-((pyridin-2-yloxy)methyl)imidazo[1,2-b][1,2,4]triazine] | 100 to 500 nM
Fc1ccc(-c2cnc3nc(COc4ccnc(F)c4)cn3n2)c(F)c1 [Example 183, 2-(2,4-difluorophenyl)-6-((2-fluoropyridin-4-yloxy)methyl)imidazo[1,2-b][1,2,4]triazine] | 100 to 500 nM
Cc1cc(F)ccc1-c1cnc2nc(COc3ccnc(F)c3)cn2n1 [Example 184, 2-(4-fluoro-2-methylphenyl)-6-((2-fluoropyridin-4-yloxy)methyl)imidazo[1,2-b][1,2,4]triazine] | 100 to 500 nM
Cc1ccccc1-c1cnc2nc(COc3ccnc(F)c3)cn2n1 [Example 185, 2-(2-methylphenyl)-6-((2-fluoropyridin-4-yloxy)methyl)imidazo[1,2-b][1,2,4]triazine] | 100 to 500 nM
